We go through eight compounds from patent publication US8637237B2, “Methods, compositions, and systems for the identification of species-specific or developmental stage-specific insecticides” (The University of North Carolina at Greensboro, priority 2003, dated 2014).

In general, EC50 refers to the concentration giving half of the maximal effect.

Data set [1] addresses T1, FXR (Rattus norvegicus, UniProt Q62735).
T1 sequence (Q62735 1-469): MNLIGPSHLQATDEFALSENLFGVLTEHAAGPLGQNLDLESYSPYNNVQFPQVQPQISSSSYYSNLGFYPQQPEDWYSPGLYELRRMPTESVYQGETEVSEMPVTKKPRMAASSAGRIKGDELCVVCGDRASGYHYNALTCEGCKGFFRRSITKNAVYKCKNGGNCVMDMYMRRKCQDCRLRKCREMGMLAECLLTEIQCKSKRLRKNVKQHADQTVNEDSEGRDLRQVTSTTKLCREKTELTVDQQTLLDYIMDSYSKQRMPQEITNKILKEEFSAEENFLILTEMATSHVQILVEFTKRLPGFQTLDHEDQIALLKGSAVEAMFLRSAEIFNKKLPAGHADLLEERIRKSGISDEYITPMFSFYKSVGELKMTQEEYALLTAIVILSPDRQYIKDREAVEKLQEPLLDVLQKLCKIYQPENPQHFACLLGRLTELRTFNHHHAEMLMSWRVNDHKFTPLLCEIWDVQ
T1 sequence (P28700 1-467 partner): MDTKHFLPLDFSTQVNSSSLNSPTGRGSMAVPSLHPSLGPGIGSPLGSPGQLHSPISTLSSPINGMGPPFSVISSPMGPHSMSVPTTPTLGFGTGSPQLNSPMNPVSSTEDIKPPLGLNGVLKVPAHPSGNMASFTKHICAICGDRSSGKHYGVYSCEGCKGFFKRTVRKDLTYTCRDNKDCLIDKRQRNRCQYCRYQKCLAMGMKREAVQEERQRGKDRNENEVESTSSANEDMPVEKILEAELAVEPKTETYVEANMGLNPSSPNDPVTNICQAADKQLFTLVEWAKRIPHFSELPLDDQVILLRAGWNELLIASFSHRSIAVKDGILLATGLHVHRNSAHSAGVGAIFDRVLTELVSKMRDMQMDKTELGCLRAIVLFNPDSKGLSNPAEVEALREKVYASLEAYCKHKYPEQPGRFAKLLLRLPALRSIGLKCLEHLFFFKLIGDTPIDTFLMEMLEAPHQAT
The experiment in a line: cell-based. In a few lines: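 CHO cells co-transfected with FXR, mouse RXRα and a (EcRE)5-ΔMTV-CAT reporter, with β-galactosidase for normalization. An RXR-dependent CRBPII-CAT reporter was run in parallel. Cells were exposed to candidate juvenoids for 24 h; CAT activity normalized to β-gal and expressed as fold induction over vehicle controls.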

For data set [2], the target named is T2, GGEc (Drosophila melanogaster, UniProt P34021).
T2 construct: were replaced by EcR LBD amino acids (EcR amino acids 329 to 878); expressed in transfected cells; host or cells: CHO
T2 sequence (P34021 329-878): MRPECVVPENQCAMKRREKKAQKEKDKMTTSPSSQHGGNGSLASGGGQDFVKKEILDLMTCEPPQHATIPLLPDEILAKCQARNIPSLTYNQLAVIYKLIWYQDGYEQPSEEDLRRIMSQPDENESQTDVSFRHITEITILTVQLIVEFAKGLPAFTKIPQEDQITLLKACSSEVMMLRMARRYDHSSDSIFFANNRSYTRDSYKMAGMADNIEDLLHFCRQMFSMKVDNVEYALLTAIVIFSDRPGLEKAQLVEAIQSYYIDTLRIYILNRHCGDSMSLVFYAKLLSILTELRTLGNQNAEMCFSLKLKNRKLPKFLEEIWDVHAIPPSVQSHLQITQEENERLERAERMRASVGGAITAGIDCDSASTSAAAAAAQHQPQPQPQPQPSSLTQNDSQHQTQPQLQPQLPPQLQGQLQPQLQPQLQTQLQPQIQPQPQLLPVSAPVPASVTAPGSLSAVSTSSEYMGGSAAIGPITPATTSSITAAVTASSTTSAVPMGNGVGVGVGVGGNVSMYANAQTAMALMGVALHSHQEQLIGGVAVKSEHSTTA
The data set is described as follows: GGEc chimera (GR amino terminus and DBD, EcR LBD) with RXR in CHO cells. The data set is classed as cell-based. The text has this: For these experiments, the luciferase reporter construct was used. To obviate influences from other transcription factors, results were normalized using a reporter plasmid from which CAT expression is driven by a minimal promoter consisting of dimerized GREs linked upstream of a 13 base pair TATA box DNA element derived from the adenovirus E1B gene.
In this experiment, GGEc and RXR were transfected into CHO cells with either a CAT or a luciferase reporter plasmid containing 1.5 kilobase pairs of the glucocorticoid-inducible mouse mammary tumor virus (MTV) promoter.
In these experiments, CHO cells were transfected with a GGEc-expressing plasmid, a mouse RXRα expression plasmid, and an adenovirus E1b TATA-(GRE)2-CAT reporter plasmid. The GGEc plasmid was eliminated from DNA mixtures added to cells transfected in parallel. CAT activities were measured from lysates of cells from triplicate wells treated with ethanol vehicle, juvocimene (20 μM), muristerone A (0.2 μM), or both.
In these experiments, CHO cells were transfected with DNAs as described above but ubiquinone-2 (10 μM) was substituted for juvocimene.

For data set [3], the target named is T3, GRdEcR/RXR (Drosophila melanogaster, UniProt P34021).
T3 construct: ligation of a Not I-Bam HI fragment containing the DBD and LBD of a modified EcR cDNA, EcRnx; expressed in transfected cells; host or cells: CHO
T3 sequence (P34021 259-878 V259R/Q260P/E261P/P331L limits assumed): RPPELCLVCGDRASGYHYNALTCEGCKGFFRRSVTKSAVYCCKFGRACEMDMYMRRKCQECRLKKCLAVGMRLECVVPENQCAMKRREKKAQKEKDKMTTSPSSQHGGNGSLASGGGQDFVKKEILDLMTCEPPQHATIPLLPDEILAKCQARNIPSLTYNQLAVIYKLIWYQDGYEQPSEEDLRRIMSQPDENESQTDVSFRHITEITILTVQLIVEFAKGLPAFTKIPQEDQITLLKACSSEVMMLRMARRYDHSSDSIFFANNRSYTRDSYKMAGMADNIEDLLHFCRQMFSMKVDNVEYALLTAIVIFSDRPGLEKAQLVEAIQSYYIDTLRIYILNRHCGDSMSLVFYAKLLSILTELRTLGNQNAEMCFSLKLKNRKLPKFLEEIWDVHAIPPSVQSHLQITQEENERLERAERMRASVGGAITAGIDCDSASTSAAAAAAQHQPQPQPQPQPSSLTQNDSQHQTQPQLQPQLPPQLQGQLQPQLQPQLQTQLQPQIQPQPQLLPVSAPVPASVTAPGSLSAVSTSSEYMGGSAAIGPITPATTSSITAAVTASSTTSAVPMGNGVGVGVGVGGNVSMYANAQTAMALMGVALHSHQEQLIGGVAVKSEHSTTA
T3 sequence (P28700 1-467 partner): T1 sequence (P28700 1-467 partner)
The data set is described as follows: GRdEcR (GEcEc) chimera with RXR, (EcRE)5-ΔMTV reporter in CHO cells. The data set is classed as cell-based. The following applies: 25 μM insecticide; 10 nM MUR. The procedure: These experiments employed a mammalian cell culture system using Chinese hamster ovary cells (CHO) to evaluate the transcriptional function of Drosophila melanogaster EcR and USP using methods described previously (U.S. Patent Application Publication No: 2005/0049230; Henrich et al, 2003). Cells were seeded in 6-well polypropylene culture plates (Falcon) with 10^5 cells per well on the day prior to transfection. Transfection was subsequently performed using either calcium phosphate (Kitareewan et al., 1996, Mol. Biol. Cell, 7:1153-1196) or a GenePorter reagent (Gene Therapy Systems, Inc; San Diego, Calif.) following manufacturer's protocols. Each well received 1.25 μg of (EcRE)5-ΔMTV-CAT (five copies of the hsp27 EcRE inserted into an mouse mammary tumor virus (MTV) promoter upstream of the chloramphenicol acetyltransferase (CAT) gene) or (EcRE)5-ΔMTV-LUC (the same promoter attached to firefly luciferase), 1.25 μg of pCH111 (SV40 early promoter linked to the β-galactosidase gene) to normalize CAT activity, and 0.25 μg of each expression plasmid (EcR, FXR, RXR, USP) that was tested. The cells were incubated with plasmid DNA for seven hours and then washed with 1×PBS. Muristerone A (murA; Alexis Biochemicals) or 20-hydroxyecdysone (20E; Sigma) dissolved in ethanol to a concentration of 10 mM was diluted as necessary to the final assay concentration (FAC) in 2 ml of fresh incubation medium that was then applied to the cells. Similarly, JHIII (Sigma) was dissolved in dimethyl sulfoxide (DMSO) to a concentration of […] and diluted into the incubation medium to its final assay concentration (20, 40, 80, 160 μM). […] A corresponding volume of ethanol and DMSO were added to control cells for all experiments. For all experiments, the cells were allowed to incubate with the medium for 24 hours before collection and cell lysates were prepared by described methods (Kitareewan et al., 1996). Both β-galactosidase and CAT reporter activity were measured based on previously used methods (Kitareewan et al, 1996). Luciferase assays using luciferrin followed the specifications of the manufacturer.
Transcriptional activity, measured as ^14C-chloramphenicol counts (for measuring CAT activity) or relative luciferase activity (RLU) was quantified for each cell lysate. The counts were then normalized by adjusting for differences in β-galactosidase activity, since β-galactosidase expression is controlled by a constitutive promoter and provides an estimate of cell mass. Data were normalized as fold-induction based on differences in reporter gene activity between hormonally treated and control cells.
In an initial series of studies, a GRdEcR chimera that consists of the rat glucocorticoid receptor (GR) activation domain attached to the EcR DBD and LBD (FIG. 1) was cotransfected along with mRXRα into CHO cells. The response of transfected cells to murA was measured using a (EcRE)5-ΔMTV-CAT reporter plasmid that carries five tandem repeats of the hsp27 EcRE linked to the MTV (mouse mammary tumor virus) promoter and the chloramphenicol acetyltransferase gene (CAT).
The prominent candidate for this JH-responsive macromolecule in insects is the structurally-related ecdysone receptor (EcR). Like FXR, EcR heterodimerizes with RXR and binds to the hsp27 ecdysone-responsive DNA element (Forman et al., 1995), but distinctively activates transcription in response to muristerone A (MurA or MUR), a synthetic ecdysone (Yao et al., 1992). […] In the experiments shown in FIG. 15A, muristerone A (MUR) was added at the indicated doses in ethanol vehicle, and increasing amounts of JH III (12, 25, or 50 μM) were added (underlying triangles). Numbers over bars indicate the ratio of the GEcEc-dependent activity produced by 50 μM JH III in the presence of the indicated dose of MUR to the activity produced by MUR alone. Relative light units (RLU) from firefly luciferase in cell lysates are expressed relative to renilla luciferase (Promega).

For data set [4], the system named is insect. The following applies: from Schneiderman and Gilbert, Science 143; cited from earlier work.
Data set [5] has as its system tobacco hornworm larvae. The conditions noted are these: cited from earlier work.

Regarding `COC1=C(OC)C(=O)C(C/C=C(\C)CCC=C(C)C)=C(C)C1=O` [U2, ubiquinone-2], the “FXR-dependent activity, induction” value in data set [1] (dose not stated) is recorded as 7 fold. In data set [2] (10 μM ubiquinone-2, muristerone A), the “GGEc-dependent activity increase over MUR” value is 7 times.
As for `CCOP(=S)(OCC)Oc1nc(Cl)c(Cl)cc1Cl` [chlorpyrifos], the “FXR-dependent activity, induction” value in data set [1] (25 μM) is “potencies and efficacies like farnesol”. The “GEcEc-dependent activity, insecticide plus MUR over MUR alone” value (from here on “GEcEc-dependent activity … over MUR alone”) in data set [3] is given as “nine times”.
Take `CCOP(=S)(OCC)Oc1ccc2c(C)c(Cl)c(=O)oc2c1` [coumaphos]: in data set [3], the “GEcEc-dependent activity … over MUR alone” value is “between two and three times”.
On the same count and under the same terms, the entry for `CCOP(=S)(OCC)Oc1cc(C)nc(C(C)C)n1` [diazinon] is “between two and three times”.
Turning to `C=CC(C)(O)CCC=C(C)CCC=C(C)C` (stereo not shown) [nerolidol], the 50% effective concentration (EC50) in data set [1] came out at 15 µM. In data set [1] (50 μM), the “FXR-dependent CAT activity, induction” value was 9 fold. The “FXR ACTIVITY (fold-induction)” value in data set [1] (final dose of 50 ∝M, 1 = induction less than 2-fold below cytotoxic doses) is 9 fold-induction. Moreover, the “JH ACTIVITY (units/g)” value in data set [4] was 8.9 units/g. In data set [2] (50 μM compound, 0.2 μM MUR), the “GGEc transcription with compound plus MUR relative to MUR alone” value was “between two and four times more”.
In the case of `CC1(C)C(C=C(Cl)Cl)C1C(=O)OCc1cccc(Oc2ccccc2)c1` (stereo not shown) [permethrin], in data set [3], the “GEcEc-dependent activity … over MUR alone” value was “between two and three times”.
Regarding `Cn1c(=O)c2[nH]cnc2n(C)c1=O` [theophylline], the “FXR-dependent activity, induction” value in data set [1] (3 mM) was 12 fold; in data set [1] (theophylline (3 mM) mixed with 8-Br-cAMP (1 mM)) it was “more than 100 fold”. Moreover, the “FXR ACTIVITY (fold-induction)” value in data set [1] (dose 3000 μM) was found to be 12 fold-induction. For the same compound, the “concentration in tobacco hornworm larvae” value in data set [5] (three days after eating tomato leaves sprayed with 1% theophylline) is given as 4 mM. For the same compound, the “reduction of leaf consumption” value in data set [5] (tomato leaves sprayed with 1% theophylline) is “by half”.
Turning to precocene, the “inhibition of FXR-dependent activity in the CHO cell-based assay” value in data set [1] is “did not inhibit”. Moreover, the “GEcEc-dependent activity … over MUR alone” value in data set [3] is “between two and three times”.
